Columns and labels:
His6-GlgXD342A+E378A = experiment: BCA reducing-end enzyme assay, GlgXD342A+E378A; assay type: biochemical, Streptomyces venezuelae; settings: 50 µM c-di-GMP, 0.05% glycogen from rabbit, 1 µM enzyme
Protocol: (§1) Fig. 2 c-di-GMP stimulates glycogen breakdown activity of GlgX in vitro. a Bicinchoninic acid (BCA) in vitro enzyme assay. The purple copper bicinchoninate complex indicating GlgX-mediated generation of reducing ends in glycogen was quantified by photometric measurements at 562 nm. A562 values were converted into reducing ends [µM glucose equivalents] based on D-glucose as a standard. Reactions contained 0.05% (w/v) glycogen from rabbit, 1 µM GlgX and increasing concentrations of c-di-GMP (0–100 µM). Source data are provided as a Source data file. b BCA assay containing 0.05% of either glycogen from rabbit, pullulan, amylopectin from maize or amylose from potato as substrates. Where appropriate, 1 µM GlgX or 50 µM c-di-GMP were added to the reaction samples. Source data are provided as a Source data file. c BCA assay as in a with or without c-di-GMP (50 µM), 0.05% glycogen from rabbit (S) and 1 µM Vnz25270, GlgX, the active site mutants GlgXD342A, GlgXE378A, GlgXD342A+E378A, or the c-di-GMP-binding mutant variant GlgXDETR49-52 as indicated. […]
(§2) Hydrolysis of carbohydrates was assessed in vitro by measuring the accumulation of reducing sugar ends using the BCA assay[42] and D-glucose as a standard for calibration (Supplementary Fig. 11). […] 125 μl sample aliquots were transferred in duplicates to a 96 well plate and the absorbance at 562 nm was measured using a plate reader.

His6-GlgXDETR(49-52) = experiment: DRaCALA with [32P]-c-di-GMP, RETD49-52 swap mutant; assay type: binding, Streptomyces venezuelae; settings: His6-GlgXDETR(49-52) mutant
Protocol: For DRaCALA assays, purified His6-GlgX (15 μg) was mixed with 0.5 μl undiluted [^32P]-c-di-GMP (42 nM) (Hartmann Analytic GmbH, Braunschweig) in binding buffer (25 mM Tris pH 8; 150 mM NaCl; 2.5% (v/v) glycerol; 5 mM MgCl2) and the reaction was incubated at rt for 5 min. For competition assays, 100 μM nonlabeled nucleotides were added to the samples and incubated at rt for 5 min prior to the addition of [^32P]-c-di-GMP. Reactions (10 μl) were spotted on the same nitrocellulose membrane (Roth), air dried for 10 min and analyzed via phosphorimaging.
217 Supplementary Fig. 5: NanoDSF assays with mutagenized His6-GlgX variants. (a) Swap of the
219 This was confirmed by DRaCALA, right. For DRaCALA assays, 15 µg of purified E. coli His6-GlgX
220 or His6-Vnz25270, respectively, were mixed with 0.5 µl of [32P]-c-di-GMP (Hartmann Analytic
221 GmbH, Braunschweig) in binding buffer (25 mM Tris pH 8.0, 150 mM NaCl, 2.5% (v/v) glycerol
222 and 5 mM MgCl2). 10 µl of the reactions were spotted on the same nitrocellulose membrane (Roth),
223 air dried for 10 min and analyzed by phosphorimaging. (b) Changing the RLVD motif (amino acids
(1 picture or pasted object on this page, not shown here)

His6-Vnz25270 = experiment: BCA reducing-end enzyme assay, Vnz25270; assay type: biochemical, Streptomyces venezuelae; settings: 50 µM c-di-GMP, 0.05% glycogen from rabbit, 1 µM enzyme
Protocol: as §1, §2

Compound: Nc1nc2c(ncn2[C@@H]2O[C@@H]3CO[P@](=O)(O)O[C@H]4[C@@H](O)[C@H](n5cnc6c(=O)[nH]c(N)nc65)O[C@@H]4CO[P@](=O)(O)O[C@H]3[C@H]2O)c(=O)[nH]1 [c-di-GMP, bis-(3′−5′)-cyclic diguanosine monophosphate]
- stimulation of enzyme activity by c-di-GMP (His6-GlgXD342A+E378A): could not be stimulated
- binding of c-di-GMP in DRaCALA (His6-GlgXDETR(49-52)): does not bind c-di-GMP
- effect of c-di-GMP on hydrolytic activity (His6-Vnz25270): remained at basal levels
